Experimental data taken from the supplement of paper PMC6045584.

Experiments:
Test in all cases: area under dose-response curve of surviving fraction (unscaled, Aref=0) (surviving fraction x log10(nM)); higher = more resistant
Conditions in all cases: exposure time: 5 days; dose range 0.5-1000 nM
MK-1775 = compound: C=CCn1c(=O)c2cnc(Nc3ccc(N4CCN(C)CC4)cc3)nc2n1-c1cccc(C(C)(C)O)n1 [MK-1775]
Procedure, shortened: (§1)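 Tumour cell lines in 384-well plates were exposed to eight inhibitor concentrations, from 0.5 to 1000 nM, for five days, and viability was read by CellTiter-Glo luminescence in three screens per line. Signals were normalised to DMSO-only wells, and 3-parameter logistic regression in the drc R package fitted dose-response survival curves to the surviving fractions. Area under the curve is given as the unscaled activity area. That area is taken over log10 dose with Aref = 0.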

AFIMOXIFENE = compound: CC/C(=C(\c1ccc(O)cc1)c1ccc(OCCN(C)C)cc1)c1ccccc1 [AFIMOXIFENE]
Procedure, shortened: as §1

CABOZANTINIB = compound: COc1cc2nccc(Oc3ccc(NC(=O)C4(C(=O)Nc5ccc(F)cc5)CC4)cc3)c2cc1OC [CABOZANTINIB]
Procedure, shortened: as §1

LENVATINIB = compound: COc1cc2nccc(Oc3ccc(NC(=O)NC4CC4)c(Cl)c3)c2cc1C(N)=O [LENVATINIB]
Procedure, shortened: as §1

[1] = compound: COc1ccc(-c2cc3c(C)nc(N)nc3n([C@H]3CC[C@H](OCCO)CC3)c2=O)cn1
Procedure, shortened: as §1

[2] = compound: C[C@@H]1CN(CC(=O)Nc2ccc3c(c2)Cc2cccc(-c4cc(=O)cc(N5CCOCC5)o4)c2S3)C[C@H](C)O1
Procedure, shortened: as §1

BLEOMYCIN = compound: Cc1c(N)nc([C@H](CC(N)=O)NC[C@H](N)C(N)=O)nc1C(=O)N[C@H](C(=O)N[C@H](C)[C@@H](O)[C@H](C)C(=O)N[C@H](C(=O)NCCc1nc(-c2nc(C(=O)NCCC[S+](C)C)cs2)cs1)[C@@H](C)O)[C@@H](OC1OC(CO)C(O)C(O)C1OC1OC(CO)C(O)C(OC(N)=O)C1O)c1cnc[nH]1 [BLEOMYCIN]
Procedure, shortened: as §1

IMATINIB = compound: Cc1ccc(NC(=O)c2ccc(CN3CCN(C)CC3)cc2)cc1Nc1nccc(-c2cccnc2)n1 [IMATINIB]
Procedure, shortened: as §1

NILOTINIB = compound: Cc1cn(-c2cc(NC(=O)c3ccc(C)c(Nc4nccc(-c5cccnc5)n4)c3)cc(C(F)(F)F)c2)cn1 [NILOTINIB]
Procedure, shortened: as §1

BEZ-235 = compound: Cn1c(=O)n(-c2ccc(C(C)(C)C#N)cc2)c2c3cc(-c4cnc5ccccc5c4)ccc3ncc21 [BEZ-235]
Procedure, shortened: as §1

BMN-673 = compound: Cn1ncnc1[C@H]1c2n[nH]c(=O)c3cc(F)cc(c23)N[C@@H]1c1ccc(F)cc1 [BMN-673]
Procedure, shortened: as §1

VORINOSTAT = compound: O=C(CCCCCCC(=O)Nc1ccccc1)NO [VORINOSTAT]
Procedure, shortened: as §1

[3] = compound: CCc1cc(Nc2nccc(-c3c(-c4ccc(OC)c(C(=O)Nc5c(F)cccc5F)c4)nc4ccccn34)n2)c(OC)cc1N1CCC(N2CCN(S(C)(=O)=O)CC2)CC1
Procedure, shortened: as §1

[4] = compound: C[C@H](CN(C)C)Oc1nc(Nc2cc3cccc(Cl)c3cn2)cnc1C#N
Procedure, shortened: as §1

Test System	area under dose-response curve (MK-1775)	area under dose-response curve (AFIMOXIFENE)	area under dose-response curve (CABOZANTINIB)	area under dose-response curve (LENVATINIB)	area under dose-response curve [1]	area under dose-response curve [2]	area under dose-response curve (BLEOMYCIN)	area under dose-response curve (IMATINIB)	area under dose-response curve (NILOTINIB)	area under dose-response curve (BEZ-235)	area under dose-response curve (BMN-673)	area under dose-response curve (VORINOSTAT)	area under dose-response curve [3]	area under dose-response curve [4]
22RV1 PROSTATE	2.97	3.57	3.33	3.44	1.98	3.54	2.95	3.51	3.59	2.09	2.4	3.27	–	–
93VU HEADNECK	2.31	4.12	3.14	3.67	2.13	–	2.25	3.93	–	2.65	–	3.25	3.51	3.44
143B BONE	2.71	–	–	3.51	2.78	3.28	3.15	–	–	2.55	–	3.26	3.38	–
A549 LUNG	3.15	3.56	3.3	3.51	2.8	3.58	3.18	3.65	3.59	2.55	3.58	–	3.29	3.25
BT20 BREAST	2.77	4.62	3.73	3.71	2.52	–	2.25	4.15	3.28	2.35	2.9	–	–	4.01
BT549 BREAST	2.27	3.21	3.6	3.7	2.15	2.89	1.6	3.76	3.42	2.29	2.53	–	3.58	2.68
C33A CERVIX	2.33	3.76	2.65	3.26	2.1	3.44	2.02	3.47	3.63	2.24	1.82	–	2.94	3
CADOES1 SOFT TISSUE	2.76	–	3.02	2.86	2.15	3.25	2.17	3.08	–	2.12	1.72	2.16	3.13	2.48
CAL72 BONE	2.65	3.6	3.56	–	2.62	3.2	3.13	3.71	3.29	2.3	3.14	3.52	3.56	2.93
CME SYNOVIAL	–	4.56	3.92	–	2.55	–	1.51	–	–	–	0.962	–	–	4.25
DU4475 BREAST	2.29	2.84	2.93	–	1.53	3.52	2.19	3.54	3.45	1.94	1.63	–	3.05	3.04
HCC202 BREAST	2.67	–	–	–	2.16	3.04	–	–	–	2.62	–	2.75	4	–
HCC1395 BREAST	3.14	3.9	3.98	3.23	2.91	3.09	2.73	4.07	3.22	3.18	2.84	3.8	3	–
HCC1806 BREAST	2.16	–	3.61	3.49	2.72	3.06	1.54	3.65	2.94	2.63	1.26	3	3.26	2.4
HCC1954 BREAST	2.32	–	3.42	3.2	2.09	2.82	1.38	3.5	2.74	2.11	–	3.06	3.23	3.14
HOSMNG BONE	2.85	3.26	2.68	3.46	2.74	3.27	–	3.46	3.21	2.74	3.19	–	3.35	3.22
KPD BONE	2.7	3.52	3.33	–	1.97	3.21	2.48	3.49	3.25	2.12	1.92	–	3.24	2.98
MDAMB157 BREAST	2.07	–	3.09	3.03	2.35	3.25	2.5	–	3.49	2.72	2.09	3.15	3.26	2.75
MDAMB453 BREAST	2.78	–	3.43	3.12	2.17	3.16	–	3.62	3.15	2.25	2.58	3.13	3.61	3.06
MDAMB468 BREAST	2.87	3.58	3.58	3.61	2.59	3.17	3.15	3.53	3.07	2.83	2.09	–	3.5	3.03
MFM223 BREAST	2.48	3.79	3.65	2.7	2.27	3.36	2.64	3.93	3.16	2.45	3	3.21	3.77	–
